Test [1] relates to KPN.2317. The test can be described thus: MIC, CLSI broth microdilution, Gram-negative clinical isolates. It counts as cell-based, Klebsiella pneumoniae.
The test system of test [2] is Enterococcus faecalis. The test is described as follows: MIC, summary of Table 13. It counts as cell-based. To be noted: Enterococcus faecalis strains of Table 13; NBS plates. The protocol:
(§1) The activity of paenibacterin against several strains of Gram-positive and Gram-negative foodborne pathogens is summarized in Table 10. The data is reported as minimum inhibitory concentrations (MIC) as an average of three replicates for paenibacterin against the various listed bacterial strains. […] MICs were determined according to the CLSI broth microdilution method (see, Clinical and Laboratory Standards Institute (CLSI). 2009. Methods for dilution antimicrobial susceptibility tests for bacteria that grow aerobically; approved standard. […]. CLSI, Wayne, Pa.). Briefly, HPLC-purified paenibacterin was dissolved in methanol and diluted to appropriate concentration with cation-adjusted Mueller-Hinton II broth (Difco). Aliquots (25 μl) of serially-diluted paenibacterin was dispensed into wells of a 96-well plate; an equal amount of 1/10 diluted overnight bacterial culture was added to wells. Plates were incubated at 35° C. for 24 h. Cell growth after incubation was examined and determined using a microtiter plate reader at 600 nm. Concentration of paenibacterin is determined based on a molecular weight of 1604 Da.
(§2) The activity of paenibacterin was further tested against clinical isolates of the following Gram-positive bacteria: methicillin-sensitive Staphylococcus aureus (MSSA), methicillin-resistant S. aureus (MRSA), vancomycin-sensitive Enterococcus faecalis, vancomycin-resistant E. faecalis (VRE), Streptococcus pneumoniae, and laboratory derived daptomycin-resistant (DR) MSSA, MRSA, and VRE strains. The MICs were determined using the above described CLSI broth microdilution method, in which the method was performed with non-binding surface coated (NBS) 96-well plates.

For test [3], the system named is Streptococcus pneumoniae. The test is described as follows: MIC, summary of Table 13. It counts as cell-based. To be noted: NBS plates. The protocol:
as §1, §2

The subject of test [4] is Staphylococcus aureus. The test is described as follows: MIC, summary of Table 13. It counts as cell-based. To be noted: Staphylococcus aureus strains of Table 13; NBS plates. The method, then:
as §1, §2

Test [5] relates to S. aureus (methycillin-resistant). The test can be described thus: Spot-on-lawn antimicrobial activity. The class given is cell-based, Staphylococcus aureus. The conditions noted are these: TSBYE. The method, then: (§3) Spot-on-lawn method [He, Z., et al., Appl. Environ. Microbiol., (2007) 73:168-178] was used for the bioassay of antimicrobial activity. Bacterial indicators were incubated at 37° C. for 24 h, except Pseudomonas putida, Clostridium difficile and methycillin resistant Staphylococcus aureus which were incubated for 48 h (Table 1). The indicator overlay was prepared by pouring 10 ml soft agar (seeded with 10 μL indicator culture) onto tryptose agar as basal medium in a petri dish. Purified antimicrobials were two-fold serially diluted and aliquots (10 μL each) were spotted onto the soft agar. The plates were incubated overnight and inspected for the presence of growth inhibition zones. Antimicrobial activity was expressed in arbitrary units (AU)/mL; this value is the reciprocal of the highest dilution displaying a zone of inhibition corresponding to 1 mL of the non-diluted antimicrobial preparation.
(§4) Purified paenibacterin was used for the antimicrobial spectrum test. Microorganisms tested for sensitivity to this compound included pathogenic (e.g., Salmonella Typhimurium, Escherichia coli O157:H7, Listeria monocytogenes, and Staphylococcus aureus) and non-pathogenic (e.g., Escherichia coli K-12, Pseudomonas putida, and Enterococcus faecalis) bacteria (Table 1).

Test [6] concerns S. enterica ser. Typhimurium DT 109. The test is described as follows: Spot-on-lawn antimicrobial activity. The conditions noted are these: TSBYE. It counts as cell-based, Salmonella enterica. The protocol:
as §3, §4

For test [7], the system named is S. enterica ser. Enteritidis. The test can be described thus: Spot-on-lawn antimicrobial activity. The conditions noted are these: TSBYE. The class given is cell-based, Salmonella enterica. The method, then:
as §3, §4

The test system of test [8] is Escherichia coli O157:H7. The test can be described thus: Antimicrobial spectrum test. To be noted: gram-negative pathogens such as Escherichia coli O157:H7. The class given is cell-based. The protocol: as §3, §4
Test [9] relates to ABA.1570. The test can be described thus: MIC, CLSI broth microdilution, Gram-negative clinical isolates. The class given is cell-based, Acinetobacter baumannii. The protocol:
(§5) Plates were incubated at 35° C. for 24 h.
(§6) The activity of paenibacterin was also tested against clinical isolates of the following Gram-negative bacterial strains: four strains of the species Pseudomonas aeruginosa (PAE), three strains of the species Acinetobacter baumannii (ABA), two strains of the species Escherichia coli (ECO), and four strains of the species Klebsiella pneumoniae (KPN). Particularly, the strains of Gram-negative bacteria included polymyxin B-resistant (PMB-R) and polymyxin B-sensitive (PMB-S) strains of each above listed species. The MICs were determined using the above described CLSI broth microdilution method, in which the method was performed with both non-binding surface coated (NBS) and polystyrene (PS) 96-well plates (Tables 11 and 12, respectively). The MICs were generally lower in the NBS 96-well plates as compared to the PS 96-well plates.

The subject of test [10] is ABA.2232. The test is described as above. The class given is cell-based, Acinetobacter baumannii. The method, then: as §5, §6
Test [11] has as its system ABA.2315. The description is as above. The class given is cell-based, Acinetobacter baumannii. The protocol: as §5, §6
Test [12] concerns B. cereus ATCC 11178. The test can be described thus: Spot-on-lawn antimicrobial activity. The class given is cell-based, Bacillus cereus. To be noted: TSBYE. The protocol: as §3, §4

The record followed here is US9017692B2, “Antimicrobial agent, bacterial strain, biosynthesis, and methods of use” (priority 2011, dated 2015).

Turning to paenibacterin, the “Minimum inhibitory concentration (MIC)” value in test [1] (NBS 96-well plates) is 64 µg/mL; in [1] (PS 96-well plates), 64 µg/mL; in [9] (NBS 96-well plates), 2 µg/mL; in [9] (PS 96-well plates), 32 µg/mL; in test [10] (NBS 96-well plates), 2 µg/mL; in test [10] (PS 96-well plates), 32 µg/mL. Besides, the “Minimum inhibitory concentration (MIC)” value in [11] (NBS 96-well plates) came to 2 µg/mL; in test [11] (PS 96-well plates), 32 µg/mL. The MIC in test [2], in [3] and in [4] was 32 to 64 µg/mL each time. The “Antimicrobial activity (AU/ml)” value in test [5] was found to be 100 AU/ml; in test [6] it was 400 AU/ml; in test [7], 800 AU/ml; in test [12], 200 AU/ml. Also, the “Antimicrobial activity (in words)” value in test [8] is “good activity”.
